Assay results: ChEMBL document CHEMBL4371052, “Diarylcarbonates are a new class of deubiquitinating enzyme inhibitor” (Bioorg Med Chem Lett, 2019)

Target: Ubiquitin carboxyl-terminal hydrolase 7 (Homo sapiens) (UniProt Q93009)
Assay: Inhibition of recombinant His6-tagged USP7 catalytic domain (unknown origin) using Ub-AMC as substrate by fluorescence assay
Details: TDE = time-dependent effect

Sequence of Ubiquitin carboxyl-terminal hydrolase 7 (Homo sapiens) (Q93009 whole entry, looked up, the tested form may be a part): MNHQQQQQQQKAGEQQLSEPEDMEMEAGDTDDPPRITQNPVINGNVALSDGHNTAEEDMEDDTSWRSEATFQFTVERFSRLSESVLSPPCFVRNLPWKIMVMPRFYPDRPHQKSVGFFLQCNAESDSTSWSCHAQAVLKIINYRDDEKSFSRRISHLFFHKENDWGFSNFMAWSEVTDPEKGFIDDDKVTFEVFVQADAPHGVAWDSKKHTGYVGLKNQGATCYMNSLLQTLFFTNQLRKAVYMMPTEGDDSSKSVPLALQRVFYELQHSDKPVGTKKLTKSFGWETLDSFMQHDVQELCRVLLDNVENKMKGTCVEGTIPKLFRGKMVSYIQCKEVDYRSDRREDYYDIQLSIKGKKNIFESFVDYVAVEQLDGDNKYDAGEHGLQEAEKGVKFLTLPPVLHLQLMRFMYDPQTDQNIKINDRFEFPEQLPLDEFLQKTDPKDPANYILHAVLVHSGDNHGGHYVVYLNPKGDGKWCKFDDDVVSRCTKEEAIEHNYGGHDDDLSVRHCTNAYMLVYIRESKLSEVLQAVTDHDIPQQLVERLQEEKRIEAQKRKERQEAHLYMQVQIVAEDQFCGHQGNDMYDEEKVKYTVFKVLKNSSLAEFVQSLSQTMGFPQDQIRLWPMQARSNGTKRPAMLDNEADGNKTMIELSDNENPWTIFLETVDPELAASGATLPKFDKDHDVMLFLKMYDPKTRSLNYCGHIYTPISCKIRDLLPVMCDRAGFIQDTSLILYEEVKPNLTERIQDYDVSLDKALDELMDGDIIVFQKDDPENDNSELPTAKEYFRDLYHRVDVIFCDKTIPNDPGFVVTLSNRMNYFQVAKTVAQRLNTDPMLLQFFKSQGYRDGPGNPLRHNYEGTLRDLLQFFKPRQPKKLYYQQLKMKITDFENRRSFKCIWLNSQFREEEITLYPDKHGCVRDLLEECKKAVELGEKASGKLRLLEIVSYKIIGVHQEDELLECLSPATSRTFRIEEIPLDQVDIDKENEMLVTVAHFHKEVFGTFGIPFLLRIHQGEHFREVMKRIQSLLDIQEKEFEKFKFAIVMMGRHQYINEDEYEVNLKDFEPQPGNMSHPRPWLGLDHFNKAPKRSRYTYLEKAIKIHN

NCc1ccc(OC(=O)Oc2ccc3ccccc3c2)cc1
inhibition: Tde
